From patent US7217702B2, “Selective antagonists of A2A adenosine receptors” (Adenosine Therapeutics, LLC, priority 2004, dated 2007)

What was measured:
[1] = cited from earlier work
A3AR = target: T1, A3AR (Homo sapiens, UniProt P0DMS8); experiment: Binding affinity of A2AAR ligands, radioligand displacement at A3AR; conditions: for selectivity ratio vs. the A2AAR, A3AR: number in parentheses; for displacement of radioligand, A3AR: 1 μM candidate ligand
T1 sequence (P0DMS8 1-318): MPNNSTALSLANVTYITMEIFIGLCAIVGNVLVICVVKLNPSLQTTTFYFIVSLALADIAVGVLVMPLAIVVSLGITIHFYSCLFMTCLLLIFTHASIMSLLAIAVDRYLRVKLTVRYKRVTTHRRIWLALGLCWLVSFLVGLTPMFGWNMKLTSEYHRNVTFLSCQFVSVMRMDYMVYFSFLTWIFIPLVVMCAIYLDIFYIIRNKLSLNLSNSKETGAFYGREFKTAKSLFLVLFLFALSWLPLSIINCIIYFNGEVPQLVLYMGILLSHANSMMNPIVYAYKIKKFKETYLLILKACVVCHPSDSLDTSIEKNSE

A1AR = target: T2, A1AR (Homo sapiens, UniProt P30542); experiment: Binding affinity of A2AAR ligands, radioligand displacement at A1AR; conditions: for selectivity ratio vs. the A2AAR, A1AR: number in parentheses
T2 sequence (P30542 1-326): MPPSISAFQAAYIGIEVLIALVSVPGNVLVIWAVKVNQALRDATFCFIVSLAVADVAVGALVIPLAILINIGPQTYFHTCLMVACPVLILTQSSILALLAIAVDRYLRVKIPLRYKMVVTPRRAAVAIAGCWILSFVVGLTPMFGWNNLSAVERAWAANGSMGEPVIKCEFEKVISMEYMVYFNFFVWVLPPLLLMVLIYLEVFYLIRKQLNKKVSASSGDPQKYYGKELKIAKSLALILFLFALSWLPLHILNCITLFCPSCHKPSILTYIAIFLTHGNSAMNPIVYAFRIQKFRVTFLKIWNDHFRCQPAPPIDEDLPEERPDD

A2A adenosine receptor = A2A adenosine receptor (Homo sapiens, UniProt P29274); experiment: Human Ki of the compound tables; type: binding; conditions: receptor subtype not given
Sequence of A2A adenosine receptor (P29274 whole entry): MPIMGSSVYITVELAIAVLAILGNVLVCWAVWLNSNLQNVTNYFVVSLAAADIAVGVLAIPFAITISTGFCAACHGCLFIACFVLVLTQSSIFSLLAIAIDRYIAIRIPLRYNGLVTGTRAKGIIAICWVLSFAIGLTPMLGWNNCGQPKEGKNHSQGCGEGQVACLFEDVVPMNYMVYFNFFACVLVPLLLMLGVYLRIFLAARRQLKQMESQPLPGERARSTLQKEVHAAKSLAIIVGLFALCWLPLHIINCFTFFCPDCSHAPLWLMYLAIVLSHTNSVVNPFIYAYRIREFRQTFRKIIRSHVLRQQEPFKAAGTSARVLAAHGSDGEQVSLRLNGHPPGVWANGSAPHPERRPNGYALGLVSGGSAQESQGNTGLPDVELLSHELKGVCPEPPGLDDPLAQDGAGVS

A2BAR = target: T3, A2BAR (Homo sapiens, UniProt P29275); experiment: Binding affinity of A2AAR ligands, radioligand displacement at A2BAR; conditions: for selectivity ratio vs. the A2AAR, A2BAR: number in parentheses; for displacement of radioligand, A2BAR: 1 μM candidate ligand
T3 sequence (P29275 1-332): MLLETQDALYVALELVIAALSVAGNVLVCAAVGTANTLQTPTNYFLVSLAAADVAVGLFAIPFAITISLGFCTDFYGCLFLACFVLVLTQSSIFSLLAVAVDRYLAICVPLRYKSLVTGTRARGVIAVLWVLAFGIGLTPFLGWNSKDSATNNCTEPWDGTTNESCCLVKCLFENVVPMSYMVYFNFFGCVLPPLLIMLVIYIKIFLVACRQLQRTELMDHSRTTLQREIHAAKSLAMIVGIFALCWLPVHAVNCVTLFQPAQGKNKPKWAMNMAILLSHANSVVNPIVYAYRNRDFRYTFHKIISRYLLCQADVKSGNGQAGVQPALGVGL

A2AAR = A2AAR (Homo sapiens, UniProt P29274); experiment: Binding affinity of A2AAR ligands, radioligand displacement at A2AAR
Sequence of A2AAR (P29274 whole entry): as the sequence (P29274 whole entry) above

rats = conditions: cited from earlier work
PD patients = conditions: 20–80 mg/day; cited from earlier work
[2] = in vivo; cited from earlier work
[3] = test system: unilateral 6-OHDA-lesioned mice; experiment: L-dopa-induced locomotor sensitization in unilateral 6-OHDA-lesioned mice; type: in vivo, mouse; conditions: 3 or 10 mg/kg i.p. before daily L-dopa
Method: The ability of ATL-2 to modify the development of L-dopa-induced locomotor sensitization in hemiparkinsonian mice are tested. C57BL/6 mice (from the Jackson's lab, Bar Harbor, […].) are lesioned with 6-OHDA by unilateral intrastriatal using a standard lesioning protocol. Seven days after the 6-OHDA (or MPP^+) treatment, mice are injected with L-dopa (2.0 mg/kg, daily) for 14 days. Five min prior to each L-dopa treatment, the mice receive intraperitoneal pretreatment with: (1) vehicle, (2) ATL-2 (3 mg/kg) or (3) ATL-2 (10 mg/kg). […] Rotational responses to L-dopa are recorded on the days 1, 3, 5, 7, 10 and 15. Following the behavioral measurement, mice may be sacrificed and their brains sectioned through striatum and substantia nigra. Striatal enkephalin mRNA levels are determined by in situ hybridization histochemistry. Similarly, DAT (^3H-mazindol) binding is measured by receptor autoradiography to ensure successful and equivalent lesions among different experimental groups.

[4] = test system: A2A receptor KO and WT mice; experiment: Motor stimulant effect in A2A receptor KO mice and WT littermates; type: in vivo, mouse; conditions: 15 mg/kg, FIG. 2
Method: We validated that ATL-2 acts on the A2A receptor to stimulate motor activity by using A2AR KO mice (in both mixed (129sv X C57BL/6) as well as congenic (C57BL/6 genetic background) developed over the last several years. We evaluated the motor stimulant effect of ATL-2 in A2A receptor KO and their WT littermates. WT and A2A KO mice (n=4) were habituated for 60 minutes and treated with ATL-2 (15 mg/kg) and recorded for motor activity for 120 minutes.

[5] = test system: normal and dopamine-depleted mice; experiment: Dose response of motor activity in normal and MPTP dopamine-depleted mice; type: in vivo, mouse; conditions: i.p.
Method: In the set of experiments, we perform a dose response study of ATL-2 in stimulating motor activity in normal mice, and then we further extend this to dopamine-depleted mice. Adult male mice are habituated for 120 minutes and treated (i.p.) with saline or varying doses of compound, and their locomotor activity recorded for 120 minutes.
In a second set of experiments, we utilize the MPTP treatment paradigm to create animal model of PD by severely depleting dopamine in mice. We use a single MPTP treatment paradigm (40 mg/kg) which has been reproducibly reducing dopamine to 30–40% of normal dopamine contents in striatum in our previous studies.^35,74 Adult male mice (˜[…]) are treated with single dose of MPTP (40 mg/kg). Thirty minutes after the MPTP treatment, mice are injected (i.p.) with vehicle or compounds of the invention at the same doses discussed above. Their motor activity is recorded for 180 minutes.

C57BL/6 mice = experiment: Motor stimulation in normal mice, locomotor activity cage system; type: in vivo, mouse
Method: The ability of compounds to stimulate motor activity in normal mice was measured using a simple, computer-assisted locomotor activity cage system. C57BL/6 mice (n═6–8 purchased from the Jackson's lab) were habituated for the testing environment for 120 minute prior to drug treatment. The test compounds were dissolved in vehicle (10% DMSO, 10% castrol oil EL-620 and 80% saline). The drug was administrated intraperitoneally at a dose of 15 mg/kg, and locomotor activity was recorded for 2 hours before and after drug administration.

dopamine-depleted mice = experiment: Synergy with L-dopa on locomotor activity in MPTP dopamine-depleted mice; type: in vivo, mouse; conditions: MPTP-treated mice
Method: We further tested the ability of these compounds to synergistically enhance motor function in conjunction with L-dopa, the standard therapy. Mice are injected (i.p.) with MPTP at a dose (1–2.5 mg/kg) that markedly decreases striatal dopamine levels. […] Locomotor behavior is monitored for 120 min before and after the treatment.

[6] = normal C57BL/6 mice, 15 mg/kg intraperitoneally, FIG. 1

SMILES | Ki (A3AR) [nM] | selectivity ratio vs. the A2AAR, A3AR (A3AR) | Ki (A1AR) [nM] | selectivity ratio vs. the A2AAR, A1AR (A1AR) | Ki (A2A adenosine receptor) [µM] | Ki (A2BAR) [nM] | selectivity ratio vs. the A2AAR, A2BAR (A2BAR) | Ki (A2AAR) [nM] | other results
Nc1nc2c(cnn2CCc2ccccc2)c2nc(-c3ccco3)nn12 [SCH58261] |  |  |  |  |  |  |  |  | solubility [1]: very poorly soluble
C#CCn1cnc2c(N)nc(C#CC3(O)C4CC5CC(C4)CC3C5)nc21 (stereo not drawn) [Compound 51] | > 650 | > 400 | 25 | 16 | < 0.1 | 155 | 97 | 1.6 | 
C[C@@H]1CCC[C@@](O)(C#Cc2nc(N)c3ncn(C4CCCC4)c3n2)C1 [Compound 3, 9-Cyclopentyl-2-{2-[1(S)-hydroxy-3(R)-methyl-1-cyclohexyl]ethyn-1-yl}adenine] | 633 | 63 | 368 | 37 | < 0.1 | 357 | 36 | 10 | 
CCn1c(=O)c2c(nc(/C=C/c3ccc(OC)c(OC)c3)n2C)n(CC)c1=O [KW6002] |  |  |  |  |  |  |  |  | toxicity (rats): long-term toxicity; tolerability in clinical trial (PD patients): well tolerated
Nc1nc(C#CC2(O)C3CC4CC(C3)CC2C4)nc2c1ncn2C1CCCC1 (stereo not drawn) [Compound 50] |  |  | > 325 | > 27 | < 0.1 |  |  | 12 | displacement of radioligand, A3AR (A3AR): 40%; displacement of radioligand, A2BAR (A2BAR): 40%
Nc1nc(NCCc2ccc(O)cc2)nc2nc(-c3ccco3)nn12 [ZM241385] |  |  |  |  |  |  |  |  | bioavailability [2]: poor bioavailability

The next lines start with results.

Ki (A3AR) [nM] | selectivity ratio vs. the A2AAR, A3AR (A3AR) | Ki (A1AR) [nM] | selectivity ratio vs. the A2AAR, A1AR (A1AR) | Ki (A2A adenosine receptor) [µM] | Ki (A2BAR) [nM] | selectivity ratio vs. the A2AAR, A2BAR (A2BAR) | Ki (A2AAR) [nM] | SMILES | other results
188 | 38 | 11 | 2 | < 0.1 | 147 | 29 | 5 | C#CCn1cnc2c(NC(CC)CC)nc(C#C[C@]3(O)CCC[C@@H](C)C3)nc21 [Compound 17, 2-{2-[1(S)-Hydroxy-3(R)-methyl-1-cyclohexyl]ethyn-1-yl}-N6-(3-pentyl)-9-(propargyl)adenine] | 
 |  | 172 | 1.3 | < 0.5 |  |  | 137 | CCC(CC)Nc1nc(C#C[C@]2(O)CCC[C@@H](C)C2)nc2c1ncn2C [Compound 11, 2-{2-[1(S)-Hydroxy-3(R)-methyl-1-cyclohexyl]ethyn-1-yl}-9-methyl-N6-(3-pentyl)adenine] | displacement of radioligand, A3AR (A3AR): 30%; displacement of radioligand, A2BAR (A2BAR): 20%
599 | 630 | 4.6 | 5 | < 0.1 | 50 |  | 0.95 | C#CCn1cnc2c(N)nc(C#C[C@]3(O)CCC[C@@H](C)C3)nc21 [Compound 2, 2-{2-[1(S)-Hydroxy-3(R)-methyl-1-cyclohexyl]ethyn-1-yl}-9-propargyladenine] | development of L-dopa-induced locomotor sensitization [3]: delays or prevent the development of locomotor sensitization; motor stimulation in A2A receptor KO mice ([4]; A2A receptor KO mice): absent; motor activity in WT mice ([4]; WT littermates): produced motor activity; motor function, dose dependence [5]: Enhances Motor Function in a Dose-dependent Manner; motor stimulant effect compared with other A2AR antagonists such as SCH58261 and KW6002 (C57BL/6 mice; from previous experience with other A2AR antagonists): comparable or stronger; duration of motor stimulation (C57BL/6 mice; [6]): about 60 minutes; motor stimulation (locomotor activity) (C57BL/6 mice; [6]): strong motor stimulation; time to peak of motor stimulation (C57BL/6 mice; [6]): ≤ 20 min; shift of the dose-response curve with L-dopa (dopamine-depleted mice): left-shift; effect with L-dopa in stimulating locomotor activity (dopamine-depleted mice; L-dopa 25 mg/kg + ATL-2 0.3-10 mg/kg): synergistic effect
